Laboratory results from article PMC6278467, “Isolation and Identification of Potent Antidiabetic Compounds from Antrodia cinnamomea—An Edible Taiwanese Mushroom” (Molecules, 2018).
Converted amounts (≈) assume the structure as drawn.

Target: T1, Saccharomyces cerevisiae α-glucosidase
T1 construct: gene MAL12; commercial enzyme from Sigma Chemical Co
Assay: pNPG hydrolysis, absorbance at […] nm
Format: biochemical
Details: p-NPG (10 mmol/L stock, 50 μL), 0.1 mol/L potassium phosphate pH 7, 37 °C, 20 min preincubation

[1] = value lies below the stated tested range (0.02-0.25, unit printed as μg/mL in footnote)

| SMILES | EC50 | EC50 [1] |
| --- | --- | --- |
| C=C(CC[C@@H](C)[C@H]1CC[C@H]2C3=C(C(=O)C[C@]12C)[C@@]1(C)CC[C@@H](O)[C@](C)(O)[C@@H]1C[C@@H]3O)[C@@H](C)C(=O)O [compound 2, 25R-antcin K] | 54 ± 0.4 µg/mL (≈ 111 µM) | – |
| C=C(CC[C@@H](C)[C@H]1CC[C@H]2C3=C(C(=O)C[C@]12C)[C@@]1(C)CCC(=O)[C@@H](C)[C@@H]1CC3=O)[C@H](C)C(=O)O [compound 5, 25S-antcin B] | 210 ± 7.6 µg/mL (≈ 448 µM) | – |
| C=C(CC[C@@H](C(=O)O)[C@H]1CC[C@@]2(C)C3=CC[C@H]4C(C)(C)[C@@H](O)CC[C@]4(C)C3=CC[C@]12C)C(C)C [compound 7, dehydroeburicoic acid] | – | 18 ± 0.2 µg/mL (≈ 38.4 µM) |
| C=C(CC[C@@H](C(=O)O)[C@H]1CC[C@@]2(C)C3=C(CC[C@]12C)[C@@]1(C)CC[C@H](O)C(C)(C)[C@@H]1CC3)C(C)C [compound 8, eburicoic acid] | – | 12 ± 0.4 µg/mL (≈ 25.5 µM) |
